We go through 15 compounds from US8426408B2, “Pyrimidine inhibitors of kinases” (AbbVie Inc., priority 2009, dated 2013).

Common to all, as to assay type: biochemical
In experiment [1] the target is T1, Aurora B (Homo sapiens, UniProt Q96GD4).
T1 construct: Active Aurora B enzyme (recombinant residues 1-344)
The experiment in a line: Aurora B enzyme inhibition (time-resolved fluorescence, histone H3 peptide). The following applies: 1 mM ATP. The method in brief:
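IC50s came from an exponential fit of inhibition against inhibitor concentration, with phosphorylation read as the 665/615 nm time-resolved fluorescence ratio after EDTA stop using Eu-anti-phospho-H3 and SA-APC. The 1 h reaction used Aurora B 1-344 plus GST-INCENP, biotin-histone H3 1-21 peptide and 1 mM ATP in pH 7.4 HEPES buffer.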

Experiment [2] has as its target T2, Aurora A (Homo sapiens, UniProt O14965).
T2 sequence (O14965 1-403): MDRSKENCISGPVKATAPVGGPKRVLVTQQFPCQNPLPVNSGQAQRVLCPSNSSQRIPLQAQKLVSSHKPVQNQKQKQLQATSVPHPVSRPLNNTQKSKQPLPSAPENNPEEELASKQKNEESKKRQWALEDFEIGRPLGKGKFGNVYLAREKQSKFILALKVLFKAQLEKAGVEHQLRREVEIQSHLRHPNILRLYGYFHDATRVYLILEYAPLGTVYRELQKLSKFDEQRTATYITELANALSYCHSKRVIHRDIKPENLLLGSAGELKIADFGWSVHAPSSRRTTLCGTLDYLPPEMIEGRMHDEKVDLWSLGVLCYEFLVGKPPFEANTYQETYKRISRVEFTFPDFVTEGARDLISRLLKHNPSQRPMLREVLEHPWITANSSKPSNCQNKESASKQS
Briefly: Aurora A enzyme inhibition (time-resolved fluorescence, STK substrate-2). The following applies: 1 mM ATP. The method in brief:
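Phosphorylation of biotinylated STK substrate-2 at 1 mM ATP, 1 h, Hepes buffer pH 7.4 (MgCl2, sodium orthovanadate, Triton X-100). After EDTA quench, 665/615 nm time-resolved fluorescence ratio read via europium anti-phospho antibody and SA-XL665; IC50 from exponential fit versus inhibitor concentration.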

Experiment [3] concerns the target KDR (Homo sapiens, UniProt P35968). Briefly: KDR HTRF in vitro kinase assay. Also on record: purified enzyme (His6-KDR 789-1354, MW 63 kD); His6 (N). The note with it: 1 mM ATP; read-out: KDR enzyme inhibition data (Ki). A digest of the protocol: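 His6-KDR 789-1354 (7 ng/well) with 0.5 μM biotinylated peptide substrate and 1 mM ATP in HEPES pH 7.1, MgCl2/MnCl2, 60 min at room temperature. EDTA-quenched, detected by streptavidin-XL-665 plus Eu-kryptate anti-phosphotyrosine HTRF after 3 h; IC50 from 620/665 nm ratio.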

Some results are limits rather than exact numbers.

Broadly, the Ki is the dissociation constant of the complex between target and ligand, obtained from inhibition or displacement.

KDR, sequence (P35968 789-1354): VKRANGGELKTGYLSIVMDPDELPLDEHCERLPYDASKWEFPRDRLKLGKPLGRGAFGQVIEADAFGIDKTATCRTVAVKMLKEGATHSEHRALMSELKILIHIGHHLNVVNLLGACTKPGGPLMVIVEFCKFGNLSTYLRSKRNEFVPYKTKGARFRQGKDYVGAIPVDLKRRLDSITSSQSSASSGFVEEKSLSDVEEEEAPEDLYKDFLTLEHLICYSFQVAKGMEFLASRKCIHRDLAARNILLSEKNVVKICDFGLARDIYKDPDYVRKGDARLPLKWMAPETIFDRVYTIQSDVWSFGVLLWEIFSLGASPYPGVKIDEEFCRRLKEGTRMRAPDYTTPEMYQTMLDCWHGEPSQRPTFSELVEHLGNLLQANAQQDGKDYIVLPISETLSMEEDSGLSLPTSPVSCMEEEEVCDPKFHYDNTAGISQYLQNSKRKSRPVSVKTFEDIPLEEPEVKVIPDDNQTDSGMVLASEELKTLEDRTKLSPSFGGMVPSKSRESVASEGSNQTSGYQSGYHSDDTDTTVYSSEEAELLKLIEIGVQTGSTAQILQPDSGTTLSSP
T1 sequence (Q96GD4 whole entry, the tested form may be a part): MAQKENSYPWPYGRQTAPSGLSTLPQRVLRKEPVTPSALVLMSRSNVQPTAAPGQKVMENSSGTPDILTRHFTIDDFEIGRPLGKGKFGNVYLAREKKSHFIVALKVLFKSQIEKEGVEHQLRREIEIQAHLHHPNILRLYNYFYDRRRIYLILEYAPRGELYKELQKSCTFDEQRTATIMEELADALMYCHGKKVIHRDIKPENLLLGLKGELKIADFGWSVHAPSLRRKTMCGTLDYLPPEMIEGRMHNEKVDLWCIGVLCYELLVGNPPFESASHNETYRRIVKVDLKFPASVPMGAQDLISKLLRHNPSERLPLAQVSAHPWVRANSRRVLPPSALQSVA
T1 sequence (Q9NQS7 826-918 partner limits assumed): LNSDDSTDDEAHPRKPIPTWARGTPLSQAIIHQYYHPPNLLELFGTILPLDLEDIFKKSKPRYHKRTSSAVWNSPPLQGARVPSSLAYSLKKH

For the compound `CNC(=O)Cn1cc(Nc2ncc(Cl)c(NC3C4CCC(C4)C3C(N)=O)n2)cn1` (racemic) [Example 61, (1R,2S,3R,4S)-3-{[5-chloro-2-({1-[2-(methylamino)-2-oxoethyl]-1H-pyrazol-4-yl}amino)pyrimidin-4-yl]amino}bicyclo[2.2.1]heptane-2-carboxamide and (1S,2R,3S,4R)-3-{[5-chloro-2-({1-[2-(methylamino)-2-oxoethyl]-1H-pyrazol-4-yl}amino)pyrimidin-4-yl]amino}bicyclo[2.2.1]heptane-2-carboxamide], the inhibitory constant (Ki) in experiment [1], in experiment [2] and in experiment [3] was < 100 nM in each case.
For the compound `CCn1cc(Nc2ncc(Cl)c(N[C@@H]3[C@H](C(=O)NC)[C@H]4C=C[C@@H]3C4)n2)cn1.CCn1cc(Nc2ncc(Cl)c(N[C@H]3[C@@H](C(=O)NC)[C@@H]4C=C[C@H]3C4)n2)cn1` (mixture of isomers) [Example 51, (1S,2S,3R,4R)-3-({5-chloro-2-[(1-ethyl-1H-pyrazol-4-yl)amino]pyrimidin-4-yl}amino)-N-methylbicyclo[2.2.1]hept-5-ene-2-carboxamide and (1R,2R,3S,4S)-3-({5-chloro-2-[(1-ethyl-1H-pyrazol-4-yl)amino]pyrimidin-4-yl}amino)-N-methylbicyclo[2.2.1]hept-5-ene-2-carboxamide], the Ki in experiment [1], in experiment [2] and in experiment [3] was < 100 nM each time.
With `CCn1cc(Nc2ncc(Cl)c(N[C@H]3[C@@H](C(N)=O)[C@@H]4C=C[C@H]3C4)n2)cn1` [Example 42, (1S,2S,3R,4R)-3-({5-chloro-2-[(1-ethyl-1H-pyrazol-4-yl)amino]pyrimidin-4-yl}amino)bicyclo[2.2.1]hept-5-ene-2-carboxamide], the Ki in experiment [1], in experiment [2] and in experiment [3] was < 100 nM throughout.
On to `CNC(=O)Cn1cc(Nc2ncc(Br)c(N[C@H]3[C@@H](C(N)=O)[C@@H]4C=C[C@H]3C4)n2)cn1` [Example 77, (1S,2S,3R,4R)-3-{[5-bromo-2-({1-[2-(methylamino)-2-oxoethyl]-1H-pyrazol-4-yl}amino)pyrimidin-4-yl]amino}bicyclo[2.2.1]hept-5-ene-2-carboxamide], for which the Ki in experiment [1], in experiment [2] and in experiment [3] was < 100 nM each time.
Regarding `NC(=O)[C@@H]1[C@H](Nc2nc(Nc3cnn([C@H]4CCCNC4)c3)ncc2Cl)[C@H]2C=C[C@@H]1C2` [Example 83, (1S,2S,3R,4R)-3-{[5-chloro-2-({1-[(3S)-piperidin-3-yl]-1H-pyrazol-4-yl}amino)pyrimidin-4-yl]amino}bicyclo[2.2.1]hept-5-ene-2-carboxamide], the Ki in experiment [1], in experiment [2] and in experiment [3] was < 100 nM in each case.
As for `Cn1cc(Nc2ncc(C(F)(F)F)c(N[C@@H]3[C@H](C(=O)NCCO)[C@H]4C=C[C@@H]3C4)n2)cn1.Cn1cc(Nc2ncc(C(F)(F)F)c(N[C@H]3[C@@H](C(=O)NCCO)[C@@H]4C=C[C@H]3C4)n2)cn1` (mixture of isomers) [Example 67, (1S,2S,3R,4R)—N-(2-hydroxyethyl)-3-{[2-[(1-methyl-1H-pyrazol-4-yl)amino]-5-(trifluoromethyl)pyrimidin-4-yl]amino}bicyclo[2.2.1]hept-5-ene-2-carboxamide and (1R,2R,3S,4S)—N-(2-hydroxyethyl)-3-{[2-[(1-methyl-1H-pyrazol-4-yl)amino]-5-(trifluoromethyl)pyrimidin-4-yl]amino}bicyclo[2.2.1]hept-5-ene-2-carboxamide], the Ki in experiment [1], in experiment [2] and in experiment [3] was < 100 nM throughout.
As for `Cn1cc(Nc2ncc(Cl)c(N[C@@H]3[C@H]4CC[C@H](C4)[C@@H]3C(N)=O)n2)cn1.Cn1cc(Nc2ncc(Cl)c(N[C@H]3[C@@H]4CC[C@@H](C4)[C@H]3C(N)=O)n2)cn1` (mixture of isomers) [Example 56, (1R,2S,3R,4S)-3-({5-chloro-2-[(1-methyl-1H-pyrazol-4-yl)amino]pyrimidin-4-yl}amino)bicyclo[2.2.1]heptane-2-carboxamide and (1S,2R,3S,4R)-3-({5-chloro-2-[(1-methyl-1H-pyrazol-4-yl)amino]pyrimidin-4-yl}amino)bicyclo[2.2.1]heptane-2-carboxamide], the Ki in experiment [1], in experiment [2] and in experiment [3] was < 100 nM in each case.
Consider `NC(=O)Cn1cc(Nc2ncc(Cl)c(N[C@H]3[C@@H](C(N)=O)[C@@H]4C=C[C@H]3C4)n2)cn1` [Example 74, (1S,2S,3R,4R)-3-[(2-{[1-(2-amino-2-oxoethyl)-1H-pyrazol-4-yl]amino}-5-chloropyrimidin-4-yl)amino]bicyclo[2.2.1]hept-5-ene-2-carboxamide], for which the Ki in experiment [1], in experiment [2] and in experiment [3] was < 100 nM throughout.
`CCn1cc(Nc2ncc(C(F)(F)F)c(N[C@@H]3[C@H](C(=O)NCCO)[C@H]4C=C[C@@H]3C4)n2)cn1.CCn1cc(Nc2ncc(C(F)(F)F)c(N[C@H]3[C@@H](C(=O)NCCO)[C@@H]4C=C[C@H]3C4)n2)cn1` (mixture of isomers) [Example 68, (1S,2S,3R,4R)-3-{[2-[(1-ethyl-1H-pyrazol-4-yl)amino]-5-(trifluoromethyl)pyrimidin-4-yl]amino}-N-(2-hydroxyethyl)bicyclo[2.2.1]hept-5-ene-2-carboxamide and (1R,2R,3S,4S)-3-{[2-[(1-ethyl-1H-pyrazol-4-yl)amino]-5-(trifluoromethyl)pyrimidin-4-yl]amino}-N-(2-hydroxyethyl)bicyclo[2.2.1]hept-5-ene-2-carboxamide]: the Ki in experiment [1], in experiment [2] and in experiment [3] was < 100 nM in each case.
As for `Cn1cc(Nc2ncc(Cl)c(N[C@H]3[C@@H](C(N)=O)[C@@H]4C=C[C@H]3C4)n2)cn1` [Example 41, (1S,2S,3R,4R)-3-({5-chloro-2-[(1-methyl-1H-pyrazol-4-yl)amino]pyrimidin-4-yl}amino)bicyclo[2.2.1]hept-5-ene-2-carboxamide], the Ki in experiment [1], in experiment [2] and in experiment [3] was < 100 nM each time.
On to `NC(=O)[C@@H]1[C@H](Nc2nc(Nc3cnn(C4CNC4)c3)ncc2Cl)[C@H]2C=C[C@@H]1C2` [Example 81, (1S,2S,3R,4R)-3-({2-[(1-azetidin-3-yl-1H-pyrazol-4-yl)amino]-5-chloropyrimidin-4-yl}amino)bicyclo[2.2.1]hept-5-ene-2-carboxamide], for which the Ki in experiment [1], in experiment [2] and in experiment [3] was < 100 nM in each case.
For the compound `NC(=O)[C@@H]1[C@H](Nc2nc(Nc3cnn([C@H]4CCNC4)c3)ncc2Cl)[C@H]2C=C[C@@H]1C2` [Example 72, (1S,2S,3R,4R)-3-{[5-chloro-2-({1-[(3S)-pyrrolidin-3-yl]-1H-pyrazol-4-yl}amino)pyrimidin-4-yl]amino}bicyclo[2.2.1]hept-5-ene-2-carboxamide], the Ki in experiment [1], in experiment [2] and in experiment [3] was < 100 nM each time.
`NC(=O)Cn1cc(Nc2ncc(Br)c(N[C@H]3[C@@H](C(N)=O)[C@@H]4C=C[C@H]3C4)n2)cn1` [Example 76, (1S,2S,3R,4R)-3-[(2-{[1-(2-amino-2-oxoethyl)-1H-pyrazol-4-yl]amino}-5-bromopyrimidin-4-yl)amino]bicyclo[2.2.1]hept-5-ene-2-carboxamide]: the Ki in experiment [1], in experiment [2] and in experiment [3] was < 100 nM each time.
Regarding `CC(C)OC(=O)Cn1cc(Nc2ncc(Cl)c(N[C@H]3[C@@H](C(N)=O)[C@@H]4C=C[C@H]3C4)n2)cn1` [Example 78, isopropyl{4-[(4-{[(1R,2R,3S,4S)-3-(aminocarbonyl)bicyclo[2.2.1]hept-5-ene-2-yl]amino}-5-chloropyrimidin-2-yl)amino]-1H-pyrazol-1-yl}acetate], the Ki in experiment [1], in experiment [2] and in experiment [3] was < 100 nM in each case.
Take “isopropyl{4-[(4-{[(1R,2R,3S,4S)-3-(aminocarbonyl)bicyclo[2.2.1]hept-5-ene-2-yl]amino}-5-fluoropyrimidin-2-yl)amino]-1H-pyrazol-1-yl}acetate and isopropyl{4-[(4-{[(1S,2S,3R,4R)-3-(aminocarbonyl)bicyclo[2.2.1]hept-5-ene-2-yl]amino}-5-fluoropyrimidin-2-yl)amino]-1H-pyrazol-1-yl}acetate [Example 6]”: the Ki in experiment [1], in experiment [2] and in experiment [3] was 100 to 1000 nM throughout.
